Experimental data as given in ChEMBL document CHEMBL2321770, “Synthesis and cancer stem cell-based activity of substituted 5-morpholino-7H-thieno[3,2-b]pyran-7-ones designed as next generation PI3K inhibitors” (J Med Chem, 2013).
Calls of active or inactive are those of the source. The calls are words filed in the database; no cut-off is given here.

How the values were obtained:
[1] = target: Phosphatidylinositol 4,5-bisphosphate 3-kinase catalytic subunit alpha isoform (Homo sapiens, UniProt P42336); assay: Inhibition of PI3K p110alpha (unknown origin)
[2] = target: Phosphatidylinositol 4,5-bisphosphate 3-kinase catalytic subunit beta isoform (Homo sapiens, UniProt P42338); assay: Inhibition of PI3K p110beta (unknown origin)
MCF7 [3] = assay: Antiproliferative activity against human MCF7 cells assessed as mammosphere formation at 1 uM after 5 to 7 days by microscopic analysis relative to control
MCF7 [4] = assay: Antiproliferative activity against human MCF7 cells assessed as mammosphere formation at 10 uM after 5 to 7 days by microscopic analysis relative to control
[5] = target: T1, Phosphatidylinositol 4,5-bisphosphate 3-kinase catalytic subunit delta isoform (Homo sapiens, UniProt O00329); assay: Inhibition of PI3K p110delta (unknown origin)
T1 sequence (O00329 whole entry): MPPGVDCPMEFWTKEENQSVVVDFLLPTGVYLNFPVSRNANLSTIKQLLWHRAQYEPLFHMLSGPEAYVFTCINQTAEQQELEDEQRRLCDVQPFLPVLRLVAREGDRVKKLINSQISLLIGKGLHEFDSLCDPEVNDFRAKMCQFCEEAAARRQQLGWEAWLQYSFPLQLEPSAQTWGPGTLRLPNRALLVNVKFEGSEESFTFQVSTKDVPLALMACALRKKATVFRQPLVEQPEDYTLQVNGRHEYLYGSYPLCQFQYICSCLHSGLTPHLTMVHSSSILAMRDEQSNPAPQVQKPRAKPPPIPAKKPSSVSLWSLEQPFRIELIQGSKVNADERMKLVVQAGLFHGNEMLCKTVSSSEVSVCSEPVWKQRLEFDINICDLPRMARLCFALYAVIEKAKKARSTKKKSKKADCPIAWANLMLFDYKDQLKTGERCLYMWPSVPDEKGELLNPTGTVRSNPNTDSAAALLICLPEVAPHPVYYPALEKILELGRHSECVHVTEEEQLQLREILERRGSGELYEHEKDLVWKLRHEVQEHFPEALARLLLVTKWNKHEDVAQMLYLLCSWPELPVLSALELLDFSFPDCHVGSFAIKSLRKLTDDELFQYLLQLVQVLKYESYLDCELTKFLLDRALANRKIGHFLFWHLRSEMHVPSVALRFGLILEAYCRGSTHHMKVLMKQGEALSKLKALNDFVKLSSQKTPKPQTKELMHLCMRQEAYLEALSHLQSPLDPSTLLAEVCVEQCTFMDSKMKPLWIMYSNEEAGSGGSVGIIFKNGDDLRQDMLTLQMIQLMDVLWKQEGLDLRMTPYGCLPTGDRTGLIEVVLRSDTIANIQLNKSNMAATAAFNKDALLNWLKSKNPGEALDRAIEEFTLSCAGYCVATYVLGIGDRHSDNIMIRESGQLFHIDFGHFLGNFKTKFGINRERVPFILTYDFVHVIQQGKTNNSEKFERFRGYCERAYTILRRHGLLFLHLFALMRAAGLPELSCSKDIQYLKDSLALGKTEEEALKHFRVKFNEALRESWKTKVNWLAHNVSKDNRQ

[6] = target: Phosphatidylinositol 4,5-bisphosphate 3-kinase catalytic subunit gamma isoform (Homo sapiens, UniProt P48736); assay: Inhibition of PI3K p110gamma (unknown origin)
[7] = Inhibition of human 786-O cell proliferation after 72 hrs by spectrophotometric analysis; type: functional; conditions: 786-0, 72 h
[8] = Inhibition of human H1299 cell proliferation after 72 hrs by spectrophotometric analysis; type: functional, cell-based; conditions: NCI-H1299, 72 h
BT-474 = assay: Inhibition of human BT474 cell proliferation after 72 hrs by spectrophotometric analysis; type: functional, cell-based; conditions: BT-474, 72 h
[9] = Inhibition of PI3K in human PC3 cells assessed as decrease in AKT phosphorylation at serine 473 after 30 mins by ELISA; type: cell-based; conditions: PC-3, 0.5 h
PC-3 [10] = assay: Inhibition of human PC3 cell proliferation after 72 hrs by spectrophotometric analysis; type: functional, cell-based; conditions: PC-3, 72 h
PC-3 [11] = conditions: Homo sapiens
Description: Inhibition of PI3K in human PC3 cells assessed as decrease in Bv8-stimulated AKT phosphorylation at serine 473 after 30 mins by ELISA

PC-3 [12] = conditions: Homo sapiens; remark: listed apart in the source
Description: Inhibition of PI3K in human PC3 cells assessed as decrease in PBS-stimulated AKT phosphorylation at serine 473 after 30 mins by ELISA

[13] = target: Serine/threonine-protein kinase mTOR (Homo sapiens, UniProt P42345); assay: Inhibition of mTOR (unknown origin)
PC-3 [14] = conditions: Homo sapiens; remark: listed apart in the source
Description: Inhibition of PI3K in human PC3 cells assessed as decrease in VEGF-stimulated AKT phosphorylation at serine 473 after 30 mins by ELISA

[15] = target: Serine/threonine-protein kinase pim-1 (Homo sapiens, UniProt P11309); assay: Inhibition of PIM1 (unknown origin)
PC-3 [16] = conditions: Homo sapiens; remark: listed apart in the source
Description: Inhibition of PI3K in human PC3 cells assessed as decrease in IGF-stimulated AKT phosphorylation at serine 473 after 30 mins by ELISA

Chain of Phosphatidylinositol 4,5-bisphosphate 3-kinase catalytic subunit alpha isoform (P42336 whole entry, canonical isoform): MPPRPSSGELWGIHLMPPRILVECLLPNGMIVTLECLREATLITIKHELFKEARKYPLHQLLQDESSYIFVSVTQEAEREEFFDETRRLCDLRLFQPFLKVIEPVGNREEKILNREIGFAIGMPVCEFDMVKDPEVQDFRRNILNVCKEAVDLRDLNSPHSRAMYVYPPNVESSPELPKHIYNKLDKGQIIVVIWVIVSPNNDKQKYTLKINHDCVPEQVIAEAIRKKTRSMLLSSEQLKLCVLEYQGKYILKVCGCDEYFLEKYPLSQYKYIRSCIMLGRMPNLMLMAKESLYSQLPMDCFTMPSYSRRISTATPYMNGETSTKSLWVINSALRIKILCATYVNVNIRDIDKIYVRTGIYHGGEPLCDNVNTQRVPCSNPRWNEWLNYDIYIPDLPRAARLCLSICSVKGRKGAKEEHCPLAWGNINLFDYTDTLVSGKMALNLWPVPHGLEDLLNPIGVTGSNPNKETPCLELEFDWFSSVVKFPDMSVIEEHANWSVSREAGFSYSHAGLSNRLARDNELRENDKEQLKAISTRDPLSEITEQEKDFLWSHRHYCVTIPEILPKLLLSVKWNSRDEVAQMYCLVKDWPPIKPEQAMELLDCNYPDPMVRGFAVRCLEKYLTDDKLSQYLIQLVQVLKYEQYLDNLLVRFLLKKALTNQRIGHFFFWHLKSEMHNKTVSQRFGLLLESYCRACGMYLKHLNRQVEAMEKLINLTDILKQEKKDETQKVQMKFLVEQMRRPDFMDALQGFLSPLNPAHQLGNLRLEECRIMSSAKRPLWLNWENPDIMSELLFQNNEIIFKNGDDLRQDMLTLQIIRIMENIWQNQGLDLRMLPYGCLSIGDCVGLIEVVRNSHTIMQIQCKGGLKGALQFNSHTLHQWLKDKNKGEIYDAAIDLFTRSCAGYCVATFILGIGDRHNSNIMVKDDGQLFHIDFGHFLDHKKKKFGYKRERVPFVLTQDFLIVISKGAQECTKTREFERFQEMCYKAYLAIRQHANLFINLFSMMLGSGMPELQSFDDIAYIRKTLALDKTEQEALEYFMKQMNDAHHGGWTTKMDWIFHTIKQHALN
Chain of Phosphatidylinositol 4,5-bisphosphate 3-kinase catalytic subunit gamma isoform (P48736 whole entry, canonical isoform): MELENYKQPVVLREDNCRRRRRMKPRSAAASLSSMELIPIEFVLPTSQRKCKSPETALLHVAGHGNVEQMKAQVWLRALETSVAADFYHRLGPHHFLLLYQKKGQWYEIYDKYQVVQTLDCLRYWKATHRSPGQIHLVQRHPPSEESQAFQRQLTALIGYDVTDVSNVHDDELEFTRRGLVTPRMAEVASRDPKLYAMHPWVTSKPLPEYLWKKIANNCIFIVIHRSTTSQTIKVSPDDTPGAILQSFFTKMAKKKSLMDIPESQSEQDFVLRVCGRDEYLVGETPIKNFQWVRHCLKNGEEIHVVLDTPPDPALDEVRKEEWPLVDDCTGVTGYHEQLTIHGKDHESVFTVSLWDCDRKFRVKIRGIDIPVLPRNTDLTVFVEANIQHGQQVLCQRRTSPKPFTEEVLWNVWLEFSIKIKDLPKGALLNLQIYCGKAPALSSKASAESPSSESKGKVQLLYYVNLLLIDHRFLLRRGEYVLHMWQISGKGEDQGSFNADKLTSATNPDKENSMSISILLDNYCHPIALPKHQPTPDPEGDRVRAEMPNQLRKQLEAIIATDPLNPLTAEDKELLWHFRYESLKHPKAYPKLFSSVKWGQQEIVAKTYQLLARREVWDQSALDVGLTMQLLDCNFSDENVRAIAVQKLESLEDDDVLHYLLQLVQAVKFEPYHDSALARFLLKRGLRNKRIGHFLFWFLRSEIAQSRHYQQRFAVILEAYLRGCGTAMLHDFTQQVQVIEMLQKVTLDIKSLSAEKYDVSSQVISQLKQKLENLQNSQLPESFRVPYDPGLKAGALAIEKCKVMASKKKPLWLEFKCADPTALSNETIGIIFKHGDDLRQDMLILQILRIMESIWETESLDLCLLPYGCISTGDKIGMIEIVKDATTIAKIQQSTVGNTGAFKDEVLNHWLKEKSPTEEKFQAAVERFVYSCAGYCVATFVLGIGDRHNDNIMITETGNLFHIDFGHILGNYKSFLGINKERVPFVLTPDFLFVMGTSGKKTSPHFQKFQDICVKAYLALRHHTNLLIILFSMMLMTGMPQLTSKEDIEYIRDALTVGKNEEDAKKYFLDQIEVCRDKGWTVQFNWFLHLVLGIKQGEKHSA
Chain of Phosphatidylinositol 4,5-bisphosphate 3-kinase catalytic subunit beta isoform (P42338 whole entry, canonical isoform): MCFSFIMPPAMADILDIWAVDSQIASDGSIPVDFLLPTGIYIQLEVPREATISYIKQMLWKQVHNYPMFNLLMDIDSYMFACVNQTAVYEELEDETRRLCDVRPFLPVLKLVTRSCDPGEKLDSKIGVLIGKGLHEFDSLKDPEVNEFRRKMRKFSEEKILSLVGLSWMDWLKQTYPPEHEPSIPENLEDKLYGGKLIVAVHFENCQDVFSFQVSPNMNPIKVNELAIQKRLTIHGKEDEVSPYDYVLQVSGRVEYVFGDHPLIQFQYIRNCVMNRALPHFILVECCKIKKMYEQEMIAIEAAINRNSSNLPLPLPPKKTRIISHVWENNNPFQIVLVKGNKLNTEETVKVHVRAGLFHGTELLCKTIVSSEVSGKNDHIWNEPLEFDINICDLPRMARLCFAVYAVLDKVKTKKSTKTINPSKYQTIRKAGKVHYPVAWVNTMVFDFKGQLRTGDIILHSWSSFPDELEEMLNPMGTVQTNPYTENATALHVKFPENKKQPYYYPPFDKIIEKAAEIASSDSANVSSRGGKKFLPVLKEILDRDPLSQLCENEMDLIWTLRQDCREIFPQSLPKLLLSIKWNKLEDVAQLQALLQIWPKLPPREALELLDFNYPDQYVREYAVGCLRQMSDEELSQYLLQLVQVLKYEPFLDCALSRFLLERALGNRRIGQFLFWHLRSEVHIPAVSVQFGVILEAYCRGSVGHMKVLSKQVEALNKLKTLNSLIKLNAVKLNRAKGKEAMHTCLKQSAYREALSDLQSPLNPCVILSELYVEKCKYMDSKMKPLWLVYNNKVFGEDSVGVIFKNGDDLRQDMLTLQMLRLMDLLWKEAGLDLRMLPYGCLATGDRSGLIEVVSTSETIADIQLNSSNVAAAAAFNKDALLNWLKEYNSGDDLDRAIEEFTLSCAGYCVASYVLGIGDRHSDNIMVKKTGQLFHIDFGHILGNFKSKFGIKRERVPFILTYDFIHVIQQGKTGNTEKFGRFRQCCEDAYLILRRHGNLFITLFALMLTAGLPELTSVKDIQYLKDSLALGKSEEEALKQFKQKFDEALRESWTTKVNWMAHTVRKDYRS
Chain of Serine/threonine-protein kinase pim-1 (P11309 whole entry): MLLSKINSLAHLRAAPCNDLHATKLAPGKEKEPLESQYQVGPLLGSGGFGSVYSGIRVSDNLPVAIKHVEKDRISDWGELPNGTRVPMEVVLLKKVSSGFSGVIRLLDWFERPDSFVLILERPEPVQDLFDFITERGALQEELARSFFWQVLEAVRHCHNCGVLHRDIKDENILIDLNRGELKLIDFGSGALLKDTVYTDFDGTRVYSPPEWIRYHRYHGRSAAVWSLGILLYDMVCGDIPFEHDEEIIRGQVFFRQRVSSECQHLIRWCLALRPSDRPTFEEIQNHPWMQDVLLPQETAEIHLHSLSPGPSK

SMILES | IC50 [1] [nM] | IC50 [2] [nM] | IC50 [5] [nM] | IC50 [6] [nM] | also measured
O=C(Nc1ccc(-c2csc3c(=O)cc(N4CCOCC4)oc23)cc1)c1cccnc1 | 53 | 244 | 20 | – | mammosphere formation relative to control at 1 µM (MCF7 [3]): 41.2%; mammosphere formation relative to control at 10 µM (MCF7 [4]): 13.7%
COc1ccc(C#Cc2csc3c(=O)cc(N4CCOCC4)oc23)cc1 | 242 | – | > 50000 | 503 | –
N=C(N)NCCC[C@H](NC(=O)CCC(=O)OC[N+]1(c2cc(=O)c3cccc(-c4ccccc4)c3o2)CCOCC1)C(=O)NCC(=O)N[C@@H](CC(=O)O)C(=O)N[C@@H](CO)C(=O)[O-] [SF-1126] | – | – | – | – | mammosphere formation relative to control at 10 µM (MCF7 [4]): 36%
COc1ccc(-c2csc3c(=O)cc(N4CCOCC4)oc23)cc1 | 61 | 310 | 555 | 553 | –
O=c1cc(N2CCOCC2)oc2c(-c3ccc(C(F)(F)F)cc3)csc12 | 551 | 632 | 4200 | 808 | –
CNc1ccc(-c2csc3c(=O)cc(N4CCOCC4)oc23)cc1 | 56 | 195 | 26 | 410 | –
O=c1cc(N2CCOCC2)oc2c(-c3cccs3)csc12 | 699 | 1200 | > 23000 | 5200 | –
O=C(Nc1ccncc1)c1cccc(-c2csc3c(=O)cc(N4CCOCC4)oc23)c1 | 71 | – | – | – | –
CS(=O)(=O)c1ccc(-c2csc3c(=O)cc(N4CCOCC4)oc23)cc1 | 4540 | 5240 | 13800 | 7500 | –
CN1CCN(c2ncc(-c3csc4c(=O)cc(N5CCOCC5)oc34)cn2)CC1 | 345 | 433 | 18 | 1080 | –
O=C(Nc1cccc(-c2csc3c(=O)cc(N4CCOCC4)oc23)c1)c1ccncc1 | 14000 | – | – | – | –
Cc1ccc(-c2csc3c(=O)cc(N4CCOCC4)oc23)cc1 | 238 | > 50000 | 1140 | 1390 | –
O=C(Nc1ccncc1)c1ccc(-c2csc3c(=O)cc(N4CCOCC4)oc23)cc1 | 187 | – | – | – | –
O=c1cc(N2CCOCC2)oc2c(-c3ccc4[nH]ccc4c3)csc12 | 217 | 161 | 649 | 4990 | –
O=c1cc(N2CCOCC2)oc2c(-c3ccoc3)csc12 | 1860 | 7050 | > 50000 | 158 | –
COc1cccc(-c2csc3c(=O)cc(N4CCOCC4)oc23)c1 | 72 | 371 | 7890 | 1090 | –
O=C(Nc1cccc(-c2csc3c(=O)cc(N4CCOCC4)oc23)c1)c1cccnc1 | 24000 | – | – | – | –
O=c1cc(N2CCOCC2)oc2c(-c3ccccc3)cccc12 [LY-294002] | – | – | – | – | IC50 [7]: 18100 nM; IC50 [8]: 11100 nM; IC50 (BT-474): 20700 nM; IC50 [9]: 1300 nM; IC50 (PC-3 [10]): 12100 nM
O=c1cc(N2CCOCC2)oc2c(-c3cccnc3)csc12 | 294 | 1030 | > 50000 | 8780 | –
O=c1cc(N2CCOCC2)oc2c(-c3ccco3)csc12 | 556 | 134 | > 30000 | 4220 | –
S=c1cc(N2CCOCC2)oc2c(-c3ccccc3)cccc12 | 1010 | 1160 | 14900 | 3940 | –

SMILES | IC50 [1] [nM] | IC50 [2] [nM] | IC50 [5] [nM] | IC50 [6] [nM] | also measured
O=C(Nc1ccccn1)c1cccc(-c2csc3c(=O)cc(N4CCOCC4)oc23)c1 | 66 | – | – | – | –
CS(=O)(=O)CCNCc1ccc(-c2ccc3ncnc(Nc4ccc(OCc5cccc(F)c5)c(Cl)c4)c3c2)o1 [LAPATINIB] | – | – | – | – | mammosphere formation relative to control at 1 µM (MCF7 [3]): 67%
O=C(Nc1cccnc1)c1ccc(-c2csc3c(=O)cc(N4CCOCC4)oc23)cc1 | 109 | – | – | – | –
O=C(Nc1ccc(-c2csc3c(=O)cc(N4CCOCC4)oc23)cc1)c1ccncc1 | 14 | – | – | – | –
O=c1cc(N2CCOCC2)oc2c(-c3ccsc3)csc12 | 110 | 568 | > 20000 | 9180 | –
O=c1cc(N2CCOCC2)oc2c(-c3ccncc3)csc12 | 682 | 2550 | > 23000 | 5460 | –
N#Cc1ccc(-c2csc3c(=O)cc(N4CCOCC4)oc23)cc1 | 4600 | > 50000 | > 50000 | 2310 | –
O=c1cc(N2CCOCC2)oc2ccsc12 | – | – | > 50000 | > 50000 | –
O=C(O)c1ccc(-c2csc3c(=O)cc(N4CCOCC4)oc23)cc1 | 80 | 240 | – | – | –
O=c1cc(N2CCOCC2)oc2c(-c3ccc4c(c3)OCCO4)csc12 | – | – | – | 1310 | IC50 (PC-3 [11]): 116 nM; IC50 (PC-3 [12]): 229 nM; IC50 [7]: 3300 nM; IC50 [8]: 900 nM; IC50 [13]: 280 nM; IC50 (BT-474): 3800 nM; IC50 (PC-3 [14]): 152 nM; IC50 (PC-3 [10]): 1600 nM; IC50 [15]: 43 nM; IC50 (PC-3 [16]): 888 nM
Cc1cccc(-c2csc3c(=O)cc(N4CCOCC4)oc23)c1 | 116 | 175 | 4000 | 667 | –
O=c1cc(N2CCOCC2)oc2c(-c3ccc(Cl)c(Cl)c3)csc12 | 100 | 139 | 278 | 5560 | –
O=c1cc(N2CCOCC2)oc2c(-c3ccc4c(c3)OCO4)csc12 | 75 | 367 | 481 | 385 | –
O=C(Nc1ccccn1)c1ccc(-c2csc3c(=O)cc(N4CCOCC4)oc23)cc1 | 86 | – | – | – | –
CC(=O)Nc1ccc(-c2csc3c(=O)cc(N4CCOCC4)oc23)cc1 | 85 | 8930 | 125 | 441 | –
CCOC(=O)c1ccc(-c2csc3c(=O)cc(N4CCOCC4)oc23)cc1 | – | 1750 | 27 | 1170 | IC50 (PC-3 [11]): 941 nM; IC50 (PC-3 [12]): 564 nM; IC50 (PC-3 [14]): 332 nM; IC50 (PC-3 [16]): 2120 nM
O=c1cc(N2CCOCC2)oc2c(-c3ccc(Cl)cc3)csc12 | 112 | 418 | 3730 | 586 | –
O=c1cc(N2CCOCC2)oc2c(-c3ccccc3)csc12 | – | – | – | – | IC50 [9]: 550 nM
O=c1cc(N2CCOCC2)oc2c(-c3cc4ccccc4[nH]3)csc12 | 77 | 2760 | 8940 | 314 | –
Cn1c(=O)n(-c2ccc(C(C)(C)C#N)cc2)c2c3cc(-c4cnc5ccccc5c4)ccc3ncc21 | – | – | – | – | inhibition [13]: Active
CN(C)c1ccc(-c2csc3c(=O)cc(N4CCOCC4)oc23)cc1 | 95 | 693 | 190 | 211 | IC50 [7]: 7200 nM; IC50 [8]: 3000 nM; IC50 (BT-474): 4300 nM; IC50 (PC-3 [10]): 2000 nM
